Source: ChEMBL document CHEMBL4257548, “Phenothiazine antioxidants increase mitochondrial biogenesis and frataxin levels in Friedreich's ataxia cells” (Medchemcomm, 2018)
Activity calls are given as the source filed them. The calls are words filed in the database; no cut-off is given here.

Key:
GM16216 [1] = assay: Cytoprotection against DEM-induced toxicity in human GM16216 cells assessed as increase in cell viability pretreated for 16 hrs followed by DEM addition and measured after 5 hrs by live/dead staining based flow cytometry; type: functional
GM15850 [2] = assay: Cytoprotection against DEM-induced toxicity in human GM15850 cells assessed as increase in cell viability pretreated for 16 hrs followed by DEM addition and measured after 5 hrs by live/dead staining based flow cytometry; type: functional
GM16216 [3] = assay: Effect on mitochondrial membrane potential in human GM16216 cells assessed as loss of mitochondrial membrane potential at 0.25 uM after 16 hrs by JC1 staining based flow cytometry (reference value: 13%); type: functional
GM16216 [4] = assay: Effect on mitochondrial membrane potential in human GM16216 cells assessed as intact mitochondrial membrane at 0.25 uM after 16 hrs by JC1 staining based flow cytometry (reference value: 87%); type: functional
GM15850 [5] = assay: Effect on mitochondrial membrane potential in human GM15850 cells assessed as loss of mitochondrial membrane potential at 0.25 uM after 16 hrs by JC1 staining based flow cytometry (reference value: 13%); type: functional
GM15850 [6] = assay: Effect on mitochondrial membrane potential in human GM15850 cells assessed as intact mitochondrial membrane at 0.25 uM after 16 hrs by JC1 staining based flow cytometry (reference value: 87%); type: functional
GM15850 [7] = assay: Cytotoxicity against human GM15850 cells at 0.25 to 2.5 uM after 24 to 48 hrs by live/dead staining-based flow cytometry; type: cell-based; settings: gm15850, 2.5 µM
GM16216 [8] = assay: Cytotoxicity against human GM16216 cells at 0.25 to 2.5 uM after 24 to 48 hrs by live/dead staining-based flow cytometry; type: cell-based; settings: gm16216, 2.5 µM
GM15850 [9] = assay: Inhibition of ATP production in human GM15850 cells at 2.5 uM after 24 hrs by Vialight reagent based luminescence assay; type: functional, cell-based
GM16216 [10] = assay: Inhibition of ATP production in human GM16216 cells at 2.5 uM after 24 hrs by Vialight reagent based luminescence assay; type: functional, cell-based
GM15850 [11] = assay: Increase in ATP production in human GM15850 cells at 0.1 uM after 24 hrs by Vialight reagent based luminescence assay; type: functional, cell-based
GM16216 [12] = assay: Increase in ATP production in human GM16216 cells at 0.1 uM after 24 hrs by Vialight reagent based luminescence assay; type: functional, cell-based
GM15850 [13] = assay: Effect on ATP production in human GM15850 cells at 0.5 uM after 24 hrs by Vialight reagent based luminescence assay; type: functional, cell-based
GM16216 [14] = assay: Effect on ATP production in human GM16216 cells at 0.5 uM after 24 hrs by Vialight reagent based luminescence assay; type: functional, cell-based
GM15850 [15] = assay: Increase in frataxin expression in human GM15850 cells at 50 to 250 nM after 24 to 48 hrs by ELISA; type: functional, cell-based
GM16216 [16] = assay: Increase in frataxin expression in human GM16216 cells at 50 to 250 nM after 24 to 48 hrs by ELISA; type: functional, cell-based
GM15850 [17] = assay: Induction of mitochondrial biogenesis in human GM15850 cells assessed as increase in ratio of COX1 to SDH-A protein levels at 50 to 250 nM after 24 to 48 hrs by ELISA; type: functional, cell-based
GM16216 [18] = assay: Induction of mitochondrial biogenesis in human GM16216 cells assessed as increase in ratio of COX1 to SDH-A protein levels at 50 to 250 nM after 24 to 48 hrs by ELISA; type: functional, cell-based
GM15850 [19] = assay: Effect on ATP production in human GM15850 cells at 0.1 to 0.5 uM after 24 hrs by Vialight reagent based luminescence assay; type: functional, cell-based
GM16216 [20] = assay: Effect on ATP production in human GM16216 cells at 0.1 to 0.5 uM after 24 hrs by Vialight reagent based luminescence assay; type: functional, cell-based
GM15850 [21] = assay: Cytotoxicity against human GM15850 cells at 2.5 uM after 48 hrs by live/dead staining-based flow cytometry; type: cell-based; settings: gm15850, 48 h
GM16216 [22] = assay: Cytotoxicity against human GM16216 cells at 2.5 uM after 48 hrs by live/dead staining-based flow cytometry; type: cell-based; settings: gm16216, 48 h
GM15850 [23] = assay: Inhibition of ATP production in human GM15850 cells after 24 hrs by Vialight reagent based luminescence assay; type: functional, cell-based
GM16216 [24] = assay: Inhibition of ATP production in human GM16216 cells after 24 hrs by Vialight reagent based luminescence assay; type: functional, cell-based
GM15850 [25] = assay: Effect on ATP production in human GM15850 cells at 0.1 uM after 24 hrs by Vialight reagent based luminescence assay; type: functional, cell-based
GM16216 [26] = assay: Effect on ATP production in human GM16216 cells at 0.1 uM after 24 hrs by Vialight reagent based luminescence assay; type: functional, cell-based
GM15850 [27] = assay: Increase in ATP production in human GM15850 cells at 0.1 to 0.5 uM after 24 hrs by Vialight reagent based luminescence assay; type: functional, cell-based
GM16216 [28] = assay: Increase in ATP production in human GM16216 cells at 0.1 to 0.5 uM after 24 hrs by Vialight reagent based luminescence assay; type: functional, cell-based
GM15850 [29] = assay: Effect on frataxin expression in human GM15850 cells at 50 nM after 24 hrs by ELISA relative to control; type: functional
GM16216 [30] = assay: Effect on frataxin expression in human GM16216 cells at 50 nM after 24 hrs by ELISA relative to control; type: functional
GM15850 [31] = assay: Effect on frataxin expression in human GM15850 cells at 250 nM after 24 hrs by ELISA relative to control; type: functional
GM16216 [32] = assay: Effect on frataxin expression in human GM16216 cells at 250 nM after 24 hrs by ELISA relative to control; type: functional
GM15850 [33] = assay: Effect on frataxin expression in human GM15850 cells at 50 nM after 48 hrs by ELISA relative to control; type: functional
GM16216 [34] = assay: Effect on frataxin expression in human GM16216 cells at 50 nM after 48 hrs by ELISA relative to control; type: functional
GM15850 [35] = assay: Effect on frataxin expression in human GM15850 cells at 250 nM after 48 hrs by ELISA relative to control; type: functional
GM16216 [36] = assay: Effect on frataxin expression in human GM16216 cells at 250 nM after 48 hrs by ELISA relative to control; type: functional
GM15850 [37] = assay: Induction of mitochondrial biogenesis in human GM15850 cells assessed as ratio of COX1 to SDH-A protein levels at 50 after 24 hrs by ELISA relative to control; type: functional
GM16216 [38] = assay: Induction of mitochondrial biogenesis in human GM16216 cells assessed as ratio of COX1 to SDH-A protein levels at 50 after 24 hrs by ELISA relative to control; type: functional
GM15850 [39] = assay: Induction of mitochondrial biogenesis in human GM15850 cells assessed as ratio of COX1 to SDH-A protein levels at 250 after 24 hrs by ELISA relative to control; type: functional
GM16216 [40] = assay: Induction of mitochondrial biogenesis in human GM16216 cells assessed as ratio of COX1 to SDH-A protein levels at 250 after 24 hrs by ELISA relative to control; type: functional
GM15850 [41] = assay: Induction of mitochondrial biogenesis in human GM15850 cells assessed as ratio of COX1 to SDH-A protein levels at 50 after 48 hrs by ELISA relative to control; type: functional
GM16216 [42] = assay: Induction of mitochondrial biogenesis in human GM16216 cells assessed as ratio of COX1 to SDH-A protein levels at 50 after 48 hrs by ELISA relative to control; type: functional
GM15850 [43] = assay: Induction of mitochondrial biogenesis in human GM15850 cells assessed as ratio of COX1 to SDH-A protein levels at 250 after 48 hrs by ELISA relative to control; type: functional
GM16216 [44] = assay: Induction of mitochondrial biogenesis in human GM16216 cells assessed as ratio of COX1 to SDH-A protein levels at 250 after 48 hrs by ELISA relative to control; type: functional
GM15850 [45] = assay: Restoration of total aconitase activity in human GM15850 cells at 50 nM after 5 days by colorimetric method relative to control; type: functional
GM16216 [46] = assay: Restoration of total aconitase activity in human GM16216 cells at 50 nM after 5 days by colorimetric method relative to control; type: functional
GM15850 [47] = assay: Restoration of total aconitase activity in human GM15850 cells at 250 nM after 5 days by colorimetric method relative to control; type: functional
GM16216 [48] = assay: Restoration of total aconitase activity in human GM16216 cells at 250 nM after 5 days by colorimetric method relative to control; type: functional
GM15850 [49] = assay: Restoration of total aconitase activity in human GM15850 cells after 5 days by colorimetric method; type: functional, cell-based

## CCCCCCCCCCCc1cc2nc3ccc(N(C)C)cc3sc-2cc1=O
GM16216 [1]
  Activity: Dose-dependent effect
GM15850 [2]
  Activity: Dose-dependent effect
GM16216 [3]
  Activity: 14%
GM16216 [4]
  Activity: 86%
GM15850 [5]
  Activity: 14%
GM15850 [6]
  Activity: 86%
GM15850 [7]
  Activity: Non-Toxic
GM16216 [8]
  Activity: Non-Toxic
GM15850 [9]
  inhibition: Active
GM16216 [10]
  inhibition: Active
GM15850 [11]
  Activity: Active
GM16216 [12]
  Activity: Active
GM15850 [13]
  Activity: inactive
GM16216 [14]
  Activity: inactive
GM15850 [15]
  Activity: Active
GM16216 [16]
  Activity: Active
GM15850 [17]
  Activity: Active
GM16216 [18]
  Activity: Active

## CCCCCCCCCCCCCc1cc2nc3ccc(N(C)C)cc3sc-2cc1=O
GM16216 [3]
  Activity: 13%
GM16216 [4]
  Activity: 87%
GM15850 [5]
  Activity: 13%
GM15850 [6]
  Activity: 87%
GM15850 [7]
  Activity: Non-Toxic
GM16216 [8]
  Activity: Non-Toxic
GM15850 [9]
  inhibition: Active
GM16216 [10]
  inhibition: Active
GM15850 [19]
  Activity: inactive
GM16216 [20]
  Activity: inactive
GM15850 [15]
  Activity: Active
GM16216 [16]
  Activity: Active
GM15850 [17]
  Activity: Active
GM16216 [18]
  Activity: Active

## CCCCCc1cc2nc3ccc(N(C)C)cc3sc-2cc1=O
GM16216 [1]
  Activity: Dose-dependent effect
GM15850 [2]
  Activity: Dose-dependent effect
GM16216 [3]
  Activity: 16%
GM16216 [4]
  Activity: 84%
GM15850 [5]
  Activity: 16%
GM15850 [6]
  Activity: 84%
GM15850 [21]
  Activity: Toxic
GM16216 [22]
  Activity: Toxic
GM15850 [23]
  inhibition: Dose-dependent effect
GM16216 [24]
  inhibition: Dose-dependent effect
GM15850 [25]
  Activity: inactive
GM16216 [26]
  Activity: inactive

## CCCCCCCCCCCCCCCCc1cc2nc3ccc(N(C)C)cc3sc-2cc1=O
GM16216 [1]
  Activity: Dose-dependent effect
GM15850 [2]
  Activity: Dose-dependent effect
GM16216 [3]
  Activity: 12%
GM16216 [4]
  Activity: 88%
GM15850 [5]
  Activity: 12%
GM15850 [6]
  Activity: 88%
GM15850 [7]
  Activity: Non-Toxic
GM16216 [8]
  Activity: Non-Toxic
GM15850 [27]
  Activity: Active
GM16216 [28]
  Activity: Active
GM15850 [9]
  inhibition: Active
GM16216 [10]
  inhibition: Active
GM15850 [15]
  Activity: Active
GM16216 [16]
  Activity: Active
GM15850 [17]
  Activity: Active
GM16216 [18]
  Activity: Active
GM15850 [29]
  Activity: 120%
GM16216 [30]
  Activity: 120%
GM15850 [31]
  Activity: 127%
GM16216 [32]
  Activity: 127%
GM15850 [33]
  Activity: 124%
GM16216 [34]
  Activity: 124%
GM15850 [35]
  Activity: 131%
GM16216 [36]
  Activity: 131%
GM15850 [37]
  Activity: 127%
GM16216 [38]
  Activity: 127%
GM15850 [39]
  Activity: 132%
GM16216 [40]
  Activity: 132%
GM15850 [41]
  Activity: 132%
GM16216 [42]
  Activity: 132%
GM15850 [43]
  Activity: 139%
GM16216 [44]
  Activity: 139%
GM15850 [45]
  Activity: 121%
GM16216 [46]
  Activity: 121%
GM15850 [47]
  Activity: 124%
GM16216 [48]
  Activity: 124%
GM15850 [49]
  Activity: Dose-dependent effect
